Experimental data from US9775354B2, “Herbicidal composition having improved plant safety” (priority 2013, dated 2017).

How the values were obtained:
Assay type in all cases: in vivo
[1] = test system: wheat (Triticum aestivum L.); assay: Test Example 1: growth inhibition of wheat after foliar treatment (pot test); conditions: compound B not added, seventh day after treatment
Source text: Upland field soil was put into a 1/1,000,000 ha pot, and seeds of wheat (Triticum aestivum L.) were sown. […] Destiny HC, manufactured by Winfield Solutions, LLC.) and applied for foliar treatment by a small sprayer. On the seventh day after treatment, the state of growth of the wheat was visually observed to determine the growth inhibition rate (%) in accordance with the following evaluation standards.

[2] = test system: perennial ryegrass (Lolium perenne L.); assay: Test Example 3: chlorosis in perennial ryegrass after foliar treatment (pot test); conditions: compound A 100 g/ha, compound B not added; sixth day after treatment; degree 0 to 5.0
Source text: Degree of chlorosis=0 (equal to the non-treated area) to 5.0 (complete chlorosis) Upland field soil was put into a 1/1,000,000 ha pot, and seeds of perennial ryegrass (Lolium perenne L.) were sown. […] Destiny HC, manufactured by Winfield Solutions, LLC.) and applied for foliar treatment by a small sprayer.

[3] = test system: timothy (Phleum pratense L.); assay: Test Example 4: growth inhibition of timothy after foliar treatment (pot test); conditions: compound A 100 g/ha, compound B not added; sixth day after treatment
Source text: (§1) On the seventh day after treatment, the state of growth of the wheat was visually observed to determine the growth inhibition rate (%) in accordance with the following evaluation standards. The results are shown in Table 1. • Growth inhibition rate (%)=0 (equivalent to the non-treated area) to 100 (complete kill)
Upland field soil was put into a 1/1,000,000 ha pot, and seeds of timothy (Phleum pratense L.) were sown. When the timothy reached 1.6 to 2.0-leaf stage, predetermined amounts of compound A and isoxadifen-ethyl, mefenpyr-diethyl or cloquintocet-mexyl were diluted with water (in an amount corresponding to 300 L/ha) containing 0.5 vol % of an agricultural adjuvant (tradename: Destiny HC, manufactured by Winfield Solutions, LLC) and applied for foliar treatment by a small sprayer.
On the sixth day after treatment, the state of growth of the timothy was visually observed to evaluate the growth inhibition rate (%) in the same manner as in the above Test Example 1.

[4] = test system: bentgrass (Agrostis stolonifera L.); assay: Test Example 5: growth inhibition of bentgrass after foliar treatment (pot test); conditions: compound A 100 g/ha, compound B not added; 24th day after treatment
Source text: as §1
Upland field soil was put into a 1/1,000,000 ha pot, and turf of bentgrass (Agrostis stolonifera L.) was put. When the bentgrass reached a height of […], predetermined amounts of compound A and mefenpyr-diethyl or cloquintocet-mexyl were diluted with water (in an amount corresponding to 300 L/ha) containing 0.5 vol % of an agricultural adjuvant (tradename: Destiny HC, manufactured by Winfield Solutions, LLC) and applied for foliar treatment by a small sprayer.
On the 24th day after treatment, the state of growth of the bentgrass was visually observed to determine the growth inhibition rate (%) in the same manner as in the above Test Example 1.

[5] = test system: kentucky bluegrass (Poa pratensis L.); assay: Test Example 6: chlorosis in kentucky bluegrass after foliar treatment (pot test); conditions: compound A 100 g/ha, compound B not added; seventh day after treatment; degree 0 to 5.0
Method: Degree of chlorosis=0 (equal to the non-treated area) to 5.0 (complete chlorosis)
Upland field soil was put into a 1/1,000,000 ha pot, and seeds of kentucky bluegrass (Poa pratensis L.) were sown. When the kentucky bluegrass reached 2-leaf stage, predetermined amounts of compound A and isoxadifen-ethyl, mefenpyr-diethyl or cloquintocet-mexyl were diluted with water (in an amount corresponding to 300 L/ha) containing 0.5 vol % of an agricultural adjuvant (tradename: Destiny HC, manufactured by Winfield Solutions, LLC) and applied for foliar treatment by a small sprayer.
On the seventh day after treatment, chlorosis which developed in the kentucky bluegrass was evaluated in the same manner as in the above Test Example 2.

`CCn1ncc(C(=O)c2ccc(S(C)(=O)=O)c(OCCOC)c2C)c1OC(C)OC(=O)OC` (stereo not drawn) [Compound A, 1-(1-ethyl-4-(3-(2-methoxyethoxy)-2-methyl-4-(methylsulfonyl)benzoyl)-1H-pyrazol-5-yloxy)ethyl methyl carbonate] was tested, and the “Growth inhibition rate (%) of wheat” value ([1]; compound A 100 g/ha) was 40%, the “Growth inhibition rate (%) of wheat” value ([1]; compound A 150 g/ha) was 40% and the “Chlorosis in perennial ryegrass” value [2] was 0.4. For the same molecule, the “Growth inhibition rate (%) of timothy” value [3] was 10%, the “Growth inhibition of bentgrass (%)” value [4] was 50% and the “Chlorosis in kentucky bluegrass” value [5] was 1.7.
